Columns and labels:
[1] = target: T1, MCR-3 (Homo sapiens, UniProt P41968); test: Melanocortin receptor binding assay, competition with 125I-HP 467, HEK 293 cells expressing hMCR-3; conditions: binding to MCR-3, HEK 293 cells; read-out: MC-3 IC50
T1 construct: expressed in transfected cells; host or cells: HEK 293
From the text: (§1) All cell culture media and reagents were obtained from GibcoBRL (Gaithersburg Md.), except for COSMIC CALF SERUM (HyClone; Logan Utah). HEK-293 cell lines were transfected with the human MC receptors hMCR-1, hMCR-3, and hMCR-4 (Gantz et al., Biochem. Biophys. Res. Comm. 200:1214-1220 (1994); Gantz et al., J. Biol. Chem. 268:8246-8250 (1993); Gantz et al. J. Biol. Chem. 268:15174-15179 (1993); Haskell-Leuvano et al., Biochem. Biophys. Res. Comm. 204:1137-1142 (1994); each of which is incorporated herein by reference). Vectors for construction of an hMCR-5 expressing cell line were obtained, and a line of HEK 293 cells expressing hMCR-5 was constructed (Gantz, supra, 1994). hMCR-5 has been described previously (Franberg et al., Biochem. Biophys. Res. Commun. 236:489-492 (1997); Chowdhary et al., Cytogenet. Cell Genet. 68:1-2 (1995); Chowdhary et al., Cytogenet. Cell Genet. 68:79-81 (1995), each of which is incorporated herein by reference). HEK 293 cells were maintained in DMEM, 25 mM HEPES, 2 mM glutamine, non-essential amino acids, vitamins, sodium pyruvate, 10% COSMIC CALF SERUM, 100 units/ml penicillin, 100 μg/ml streptomycin and 0.2 mg/ml G418 to maintain selection.
(§2) Before assaying, cells were washed once with phosphate buffered saline (“PBS”; without Ca^2+ and Mg^2+), and stripped from the flasks using 0.25% trypsin and 0.5 mM EDTA. Cells were suspended in PBS, 10% COSMIC CALF SERUM and 1 mM CaCl2. Cell suspensions were prepared at a density of 2×10^4 cells/ml for HEK 293 cells expressing hMCR-3, hMCR-4 or hMCR-5, and 1×10^5 cells/ml for HEK 293 cells expressing hMCR-1. Suspensions were placed in a water bath and allowed to warm to 37° C. for 1 hr.
(§3) Binding assays were performed in a total volume of 250 μl for HEK 293 cells. Control and test compounds were dissolved in distilled water. ^125I-HP 467 (50,000 dpm) (2000 Ci/mmol) (custom labeled by Amersham; Arlington Heights Ill.) was prepared in 50 mM Tris, pH 7.4, 2 mg/ml BSA, 10 mM CaCl2, 5 mM MgCl2, 2 mM EDTA and added to each tube. To each tube was added 4×10^3 HEK 293 cells expressing hMCR-3, hMCR-4 or hMCR-5, or 2×10^4 cells expressing hMCR-1. Assays were incubated for 2.5 hr at 37° C.
(§4) GF/B filter plates were prepared by soaking for at least one hour in 5 mg/ml BSA and 10 mM CaCl2. Assays were filtered using a Brandel 96-well cell harvester (Brandel Inc.; Gaithersburg, Md.). The filters were washed four times with cold 50 mM Tris, pH 7.4, the filter plates were dehydrated for 2 hr and 35 μl of MICROSCINT was added to each well. Filter plates were counted using a Packard Topcount (Packard Instrument Co.) and data analyzed using GraphPad PRISM v2.0 (GraphPad Software Inc.; San Diego Calif.) and Microsoft EXCEL v5.0a (Microsoft Corp.; Redmond Wash.).
(§5) To assay isoquinoline compounds, binding assays were performed in duplicate in a 96 well format. HP 467 was prepared in 50 mM Tris, pH 7.4, and ^125I-HP 467 was diluted to give 100,000 dpm per 50 μl. An isoquinoline compound, synthesized as described in Example I, was added to the well in 25 μl aliquots. A 25 μl aliquot of ^125I-HP 467 was added to each well. A 0.2 ml aliquot of suspended cells was added to each well to give the cell numbers indicate above, and the cells were incubated at 37° C. for 2.5 hr. Cells were harvested on GF/B filter plates as described above and counted.
(§6) Some of the isoquinoline compounds were further tested for binding to MCR-3 and MCR-5.

[2] = target: T2, MCR-5 (Homo sapiens, UniProt P33032); test: Melanocortin receptor binding assay, competition with 125I-HP 467, HEK 293 cells expressing hMCR-5; conditions: binding to MCR-5, HEK 293 cells; read-out: MC-5 IC50
T2 construct: expressed in transfected cells; host or cells: HEK 293
From the text: as §1, §2, §3, §4, §5, §6

[3] = system: TNF-α; test: Reduction of lipopolysaccharide-induced tumor necrosis factor levels in mice; format: in vivo, BALB/c female mice; conditions: IP, plasma 90 or 105 minutes after LPS, mean ± SEM
Experimental: BALB/c female mice weighing approximately 20 g were placed into a control group and a treated group. Five mg/kg of LPS in 0.9% saline was administered (100 μl to give 100 μg LPS per mouse) by intraperitoneal (IP) injection to all mice. Mice in the treatment group received either 30, 100, 300 or 600 μg of various isoquinoline compounds per mouse in a volume of 100 μl of PBS. Control mice received 100 μl of saline alone. One minute after initial injections all mice received the LPS injection. As a positive control, 100 μg of HP 228 was injected per mouse.
Blood samples were collected from the orbital sinus of treated and control mice 90 minutes or 105 minutes after LPS administration. The plasma was separated by centrifugation at 3000×g for 5 min and stored at −20° C. Samples were thawed and diluted, if TNF-α concentration was greater than 3200 pg/ml, with PBS containing 1% bovine serum albumin, 10% donor horse serum, 1% normal mouse serum, 0.05% TWEEN-20 and 0.05% thimerosal. A 100 μl sample of plasma was assayed by ELISA for TNF-α. Briefly, ELISA plates were coated with hamster anti-mouse TNF-α antibody (Genzyme; Cambridge Mass.). Samples or known concentrations of TNF-α were added to the coated plates and incubated for 2 hr at 37° C. Plates were washed and subsequently incubated with biotinylated rabbit anti-mouse TNG-α for 1 hr at 37° C. Plates were washed and incubated with streptavidin-HRP for 1 hr at 37° C., and HRP activity was detected with hydrogen peroxide and o-phenylenediamine (OPD) using standard immunoassay procedures.
The mean (±SEM) TNF-α level in five mice from each group was determined and the percent reduction in TNF-α levels was calculated.

[4] = system: IL-10; test: Increasing levels of IL-10 in mice (plasma ELISA); format: in vivo; conditions: IP, mouse plasma, 90 or 105 minutes
Experimental: Isoquinoline compounds were administered intraperitoneally to mice in doses of 30, 100 or 300 μg/mouse or orally in doses of 300 or 600 μg/mouse. Levels of IL-10 were measured 90 or 105 minutes after administration as indicated. Samples were collected and diluted, when appropriate, as described in Example VI. A 100 μl sample of plasma was assayed by ELISA for IL-10. Briefly, ELISA plates were coated with rat anti-mouse IL-10 monoclonal antibody (Pharmingen; San Diego Calif.). Samples or known concentrations of IL-10 were added to the coated plates and incubated for 2 hr at 37° C. Plates were washed and incubated with biotinylated rat anti-mouse IL-10 (R&D Systems; Minneapolis Minn.) for 1 hr at 37° C. Plates were washed and incubated with streptavidin-HRP 30 min at 37° C., and HRP activity was detected with hydrogen peroxide and TMB using standard immunoassay procedures.

[5] = system: arachidonic acid induced dermal inflammation; test: Arachidonic acid induced dermal inflammation (ear thickness); format: in vivo, Female BALB/c mice
Experimental: Female BALB/c mice (17-22 g) were used and administered the test isoquinoline compounds or positive control compounds 30 to 60 min prior to topical application of arachidonic acid. Indomethacin and HP 228 were used as positive controls. Compounds were administered orally (p.o.) or intraperitoneally (i.p.). Initial ear thickness (left and right) was measured using spring loaded micro-calipers. Arachidonic acid was applied to mice anesthetized with a cocktail of ketamine/xylazine (7.0 mg/ml and 0.6 mg/ml, respectively) administered i.p. (300 μl/mouse). Utilizing a micro-pipette, 20 μl of arachidonic acid solution (100 mg/ml ethanol or acetone) was applied to the right ear (10 μl to inner and 10 μl to outer surfaces of […] for a total of 2 mg arachidonic acid per right ear), and 20 μl of vehicle (ethanol or acetone) was applied to the left ear. Mice were returned to their cages to recover. Mice were again anesthetized 50 min after arachidonic acid application and their ears measured.
Dermal inflammation was determined by subtracting the difference of the vehicle treated left ear (L60−L0) from the difference of the arachidonic acid treated right ear (R60−R0). Ear thickness measurements were averaged for each group, and the responses in the vehicle treated control group (Cr; saline or PBS) were subtracted from the response noted in the isoquinoline compound treated group (Tr) to give the relative inflammatory response for each treatment group compared to the control group. The percent inhibition is defined by the equation: % inhibition=(Cr−Tr)/(Cr)×100.

[6] = Body weight and food consumption after i.p. administration; format: in vivo, Sprague-Dawley rats; conditions: rats, 5 mg/kg i.p., 18 hours after injection; FIG. 6
From the text: Adult male Sprague-Dawley rats (175-225 g) were used to assess the effect of isoquinoline compounds on food uptake and body weight. Baseline body weight and food consumption measurements were taken for 3 days prior to start of the study (Day 0). On Day −1, the food was taken away from the animals at 5:00 PM. The next morning (Day 0), body weight measurements were taken, and the animals were divided into treatment groups with 6 animals in each group. The treatment groups were saline control, HP 228 positive control and test isoquinoline compounds. Saline was administered i.p. at 1 ml/kg. HP 228 and test isoquinoline compounds were administered i.p. at 5 mg/kg. The injections were initiated at 2:00 PM on Day 0.
Body weight and food consumption measurements were taken at 9 hr (Day 0; 11:00 PM) and at 18 hr (Day 1, 8:00 AM) after injection. At the end of the study, all evaluated parameters (9 and 18 hour body weight and food consumption) were analyzed by standard statistical methods. Significance (P<0.05) was determined by one-way ANOVA, ANOVA for repeated measures, or Student's t-test.
The level of reduction was similar to that seen with HP 228.

T2 sequence (P33032 whole entry): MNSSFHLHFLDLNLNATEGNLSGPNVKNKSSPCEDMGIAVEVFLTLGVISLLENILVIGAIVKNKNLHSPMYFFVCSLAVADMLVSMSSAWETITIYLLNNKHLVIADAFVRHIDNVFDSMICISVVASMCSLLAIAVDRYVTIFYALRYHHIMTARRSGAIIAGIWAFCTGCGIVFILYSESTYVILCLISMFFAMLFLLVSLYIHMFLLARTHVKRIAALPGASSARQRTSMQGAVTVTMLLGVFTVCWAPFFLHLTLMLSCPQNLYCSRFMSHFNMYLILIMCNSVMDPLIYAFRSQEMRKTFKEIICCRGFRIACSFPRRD
T1 sequence (P41968 whole entry): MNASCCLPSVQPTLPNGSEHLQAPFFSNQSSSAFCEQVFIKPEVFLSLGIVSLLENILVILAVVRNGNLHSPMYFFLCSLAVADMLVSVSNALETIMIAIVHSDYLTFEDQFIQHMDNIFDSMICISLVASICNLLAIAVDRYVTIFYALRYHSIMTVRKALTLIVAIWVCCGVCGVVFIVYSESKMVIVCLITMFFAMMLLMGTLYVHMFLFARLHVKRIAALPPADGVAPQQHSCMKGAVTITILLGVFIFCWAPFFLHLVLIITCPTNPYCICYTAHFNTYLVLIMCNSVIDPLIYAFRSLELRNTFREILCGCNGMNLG

Row | Compound | IC50 [1] [µM] | IC50 [2] [µM] | % TNF-α Inhibtion, IP 30 ([3]; 30 μg per mouse) [%] | % TNF-α Inhibtion, IP 300 ([3]; 300 μg per mouse) [%] | % IL-10 Induction, IP 30 ([4]; 30 μg per mouse) [%] | % IL-10 Induction, IP 300 ([4]; 300 μg per mouse) [%] | inhibition of arachidonic acid induced dermal inflammation ([5]; 100 μg/mouse administered intraperitoneally, FIG. 4) | inhibition of arachidonic acid induced dermal inflammation ([5]; administered intraperitoneally, TRG 2405-241 300 μg/mouse, HP 228 100 μg/mouse, FIG. 3) | reduction in the level of arachidonic acid-induced dermal inflammation ([5]; intraperitoneally, HP 228 100 μg/mouse, TRG 2409-2 or TRG 2409-14 100 or 300 μg/mouse, FIG. 5) | food consumption [6] | weight gain [6]
1 | CCNc1ccc(C2C(CNC3CCCC3)c3ccccc3CN2CCCCC(CN)NC)cc1 (centres unmarked) [TRG 2407-67] | 20.9 | 4.16 | 8 ± 14 | 73 ± 3 | −3 ± 15 | 29 ± 8 | – | – | – | – | –
2 | Ac-Nle-Gln-His-(D)Phe-Arg-(D)Trp-Gly-NH2 [HP 228, reference compound] | – | – | – | – | – | – | inhibition of arachidonic acid induced dermal inflammation | inhibition of arachidonic acid induced dermal inflammation | reduction | reduction | reduction

From patent publication US6608082B1, “Treatment of erectile dysfunction using isoquinoline compound melanocortin receptor ligands” (Lion Bioscience AG, priority 1998, dated 2003)
